# Read-outs that look alike come from different tables or passages of the source.
# Experiments:
# SH-SY5Y cells [1] = test: cells; assay type: cell-based, human; settings: for EC50: MTT
# [2] = ABTS radical scavenging assay; assay type: biochemical; settings: for IC50: 30-min incubation; for ABTS Assay TEAC50: Equivalent antioxidant capacity at Trolox 50 mM; for ABTS Assay TEAC100: Equivalent antioxidant capacity at Trolox 100 mM
# Procedure: The mixture was stored in the dark at room temperature for 16 h. […] All the compounds tested were dissolved in EtOH. […] The degree of decolorization was calculated as the percentage reduction of absorbance. […] Trolox was used as a reference antioxidant.
# [3] = Ferric reducing antioxidant power (FRAP) assay; assay type: biochemical; design: FRAP Assay Trolox Equivalents: unit not given here; settings: for FRAP Assay Antioxidant Capacity (%) at 100 uM: compound at 100 uM; for FRAP Assay Antioxidant Capacity (%) at 200 uM: compound at 200 uM
# Procedure: FRAP reagent was prepared by mixing 10 mL of 300 mM acetate buffer with 1 mL of 10 mM 2,4,6-tripyridyl-S-triazine (TPTZ) in HCl 40 mM and 1mL of FeCl3·6H2O 20 mM. […] Trolox was used as assay control.
# [4] = Kinetic solubility by UV spectrometry; assay type: physicochemical; settings: PBS 50 mM, aqueous buffer, kinetic from dmso stock
# Procedure: A modified protocol was used from that described by Hoelke et al. for the determination of the kinetic solubility from DMSO compound solutions. A compound calibration curve (compound concentration vs UV absorption) was prepared for each compound with concentrations of 10, 20, 50, 100, and 200 µM. Each compound dilution was carried out by pipetting defined volumes of a 20 mM stock compound solution in DMSO into vials and adding PBS 50 mM to reach a final volume of 1 mL/well. The final amount of DMSO per well was 2%. For the lower compound concentrations, an additional volume of DMSO was added to each well to reach 2% DMSO. Then, 200 µL of each dilution was transferred to a new 96-well culture plate for the measurement of the UV-spectra. One well in each row was left without a compound as a blank, and its UV absorbance was used as an offset correction. The experiments were performed in duplicate.
# In parallel, compound saturation solutions were reached and filtered from 20 mM compound stock in DMSO: 10 µL of a 20 mM stock solution was dispensed into 190 µL of PBS 10 mM. The solutions were mixed, shaken on a microplate shaker for two hours, and then 160 µL of each solution was filtered and transferred to a new well plate for UV absorption measurement.
# Measurement of the UV-spectra was performed using a Varioskan microplate reader, and spectra were taken in the range of 270–600 nm. Spectral bandwidth was set to 5 nm, and the data pint interval was 10 nm. The experiments were carried out in triplicate.
# SH-SY5Y cells [5] = test: Cytotoxicity, MTT assay, SH-SY5Y; assay type: cell-based; settings: Homo sapiens, MTT, cytotoxicity, read-out: SH-SY5Y IC50
# Procedure: (§1) All compounds tested were dissolved and eventually further diluted in dimethylsulfoxide (DMSO). After overnight incubation, the cells were treated with different compound concentrations (5, 10, 20, 50, 100, 150, 200 µM) in a final volume of 200 µL with four replicates each. […] Cell proliferation or viability was measured using the 3-(4,5-dimethylthiazol-2-yl)-2,5-diphenyl tetrazolium bromide (MTT) assay. The MTT assay was optimized taking into account the number of cells plated per well, to work in the linear part of the cell density vs. MTT absorbance calibration curve, which allows achieving a maximum absorbance in the range of 0.8–1.0 in each well at the end of the experiment. In addition to that, the number of cells seeded for each experiment was optimized in agreement with the time scale of the experiment.
# (§2) After cell treatment, 20 µL of MTT (5 mg/mL) was added to each well, and the plate was incubated at 37 °C in the dark for 2 h. Supernatants were removed, and the formazan crystals were solubilized in DMSO (200 µL/well), under 10 min shaking at room temperature. The reduction of MTT was quantified by absorbance at 570 nm in a Varioskan microplate reader (Thermo Fisher Scientific, Vantaa, Finland). Effects of the test compounds on cell viability were calculated using cells treated with a vehicle as a control. For IC50 and LD50 calculations, the data were subjected to linear regression analysis, and the regression lines were plotted for the best fit. The IC50 (inhibition of cell viability) concentrations were calculated using the respective dose–response curves.
# HepG2 cells = test: Cytotoxicity, MTT assay, HepG2; assay type: cell-based; settings: Homo sapiens, HepG2; MTT, cytotoxicity; read-out: HepG2 IC50
# Procedure: as §1, §2
# SH-SY5Y cells [6] = test: LDH release under H2O2; assay type: cell-based, human; settings: H2O2 250 µM 24 h; compounds 24 h before; Figure 9
# [7] = Chemical reactivity with H2O2; assay type: physicochemical; settings: H2O2 500 µM, 37 °C, 4 h, DMEM:F12 without cells
# Procedure: In our case, before running the protection experiments under oxidative stress conditions, we carried out experiments to assess the potential reactivity of compounds 9, 11, 13, and 18 at four different concentrations (5, 10, 20, and 40 µM) with H2O2 500 µM at 37 °C for 4 h in DMEM:F12 (without phenol red, FBS, and cells). Curcumin was used as a control compound.
# SH-SY5Y cells [8] = test: Neuroprotection against H2O2-induced oxidative stress, MTT; settings: H2O2 250 µM 24 h; compounds 5-50 µM 24 h before; Figure 8
# SH-SY5Y cells [9] = test: Neuroprotection in the 6-OHD neurotoxicity-induced model, MTT; assay type: cell-based, human; settings: 6-OHD 250 µM 48 h; compounds 24 h before
# SH-SY5Y cells [10] = test: Neuroprotection in the MPP+ neurotoxicity-induced model, MTT; assay type: cell-based, human; settings: MPP+ 700 µM 48 h; compounds 24 h before
# SH-SY5Y cells [11] = test: Intracellular ROS levels (DCFH2-DA); assay type: cell-based, human; settings: 400 µM H2O2 4 h; compounds 24 h before
# Procedure: Intracellular ROS levels were determined using dichlorofluorescein diacetate (DCFH2-DA) according to Wang et al.. DCFH2-DA is cleaved by intracellular esterases and is oxidized by ROS to form the fluorescent compound DCF, which represents the ROS level. Therefore, 3 × 10^3 SH-SY5Y cells were seeded in 96-well culture black clear bottom plates and after 24 h were treated with the test compound for an additional 24 h. Then, they were exposed to H2O2 for 4 h. After the incubation period, cells were washed twice with Hanks buffer and loaded with 20 µM DCFH2-DA (in FBS-free culture medium) for 40 min in dark at 37 °C in a CO2 incubator. At the end of the dye incubation period, they were washed twice with Hanks buffer to remove the extracellular DCFH2-DA. Fluorescence was measured with a Varioskan microplate reader at λex = 485 nm and λem = 535 nm wavelengths. Results are expressed as a percentage of the fluorescent increase compared with that of the control. All the experiments were performed at least three times in quadruplicate for each compound concentration.
# SH-SY5Y cells [12] = test: Mitochondrial membrane potential (JC-1); assay type: cell-based, human; settings: 400 µM H2O2 4 h; compounds 24 h before at different concentrations
# Procedure: The fluorescent dye 5,5′,6,6′-tetrachloro-1,1′,3,3′-tetraethylbenzimidazolylcarbocyanine iodide (JC-1) was used for measuring MMP [89]. A decrease in fluorescence intensity represents mitochondrial membrane depolarization. For fluorescence ratio detection under oxidative stress conditions, 96-well culture black clear bottom plates were seeded with 3 × 10^3 SH-SY5Y cells, and after 24-h incubation, they were treated with the test compound and left out for 24 h. Then, the cells were exposed to different H2O2 concentrations for 4 h. After the incubation period, the cells were washed twice with Hanks buffer and then stained with 5 µM JC-1 in culture media in the dark in a CO2 incubator at 37 °C for 20 min. At the end of the dye incubation period, cells were washed three times with Hanks buffer, and 200 µL of fresh buffer was added. Cells were analyzed with a Varioskan microplate reader. J-aggregate red fluorescence intensity was measured at λex = 535 nm and λem = 595 nm, while λem = 485 nm and λem = 535 nm was used for J-monomer green fluorescence. Results were expressed as the ratio of fluorescence intensity of J-aggregates to J-monomers. All the experiments were performed three times in quadruplicate for each compound concentration.
# SH-SY5Y cells [13] = test: Resazurin cell viability assay under H2O2; assay type: cell-based, human; settings: 24-h incubation, resazurin
structure (smiles),measurement,setting,value
"NCCc1cc(O)c(O)cc1O [Compound 6-OHD, 6-hydroxydopamine]",EC50,"SH-SY5Y cells [1]; Homo sapiens, SH-SY5Y, 6-OHD 48 h, read-out: concentration at which the cell viability was reduced by 50%",250 µM
"O=C1CC(c2ccccc2)=Nc2cc(F)c(F)cc2N1 [Compound 9, 7,8-Difluoro-4-phenyl-1H-1,5-benzodiazepin-2(3H)-one]",IC50,[2],432 ± 68 µM
same,ABTS Assay TEAC50,[2],0.36
same,ABTS Assay TEAC100,[2],0.18
same,FRAP Assay Trolox Equivalents,[3],0.43
same,FRAP Assay Antioxidant Capacity (%) at 100 uM,[3],21.9%
same,FRAP Assay Antioxidant Capacity (%) at 200 uM,[3],37.1%
same,solubility,[4],< 50 µM
same,IC50,SH-SY5Y cells [5],> 250 µM
same,IC50,HepG2 cells,> 250 µM
same,LDH leakage,SH-SY5Y cells [6],reduced LDH leakage to some degree
same,Reaction with H2O2,[7],did not show any significant reaction
"O=C1CC(c2ccccc2)=Nc2ccc(F)cc2N1 [Compound 11, 8-Fluoro-4-phenyl-1H-1,5-benzodiazepin-2(3H)-one]",IC50,[2],306 ± 34.6 µM
same,ABTS Assay TEAC50,[2],0.35
same,ABTS Assay TEAC100,[2],0.17
same,FRAP Assay Trolox Equivalents,[3],0.56
same,FRAP Assay Antioxidant Capacity (%) at 100 uM,[3],28.9%
same,FRAP Assay Antioxidant Capacity (%) at 200 uM,[3],49.8%
same,solubility,[4],< 20 µM
same,IC50,SH-SY5Y cells [5],> 250 µM
same,IC50,HepG2 cells,> 250 µM
same,Reaction with H2O2,[7],did not show any significant reaction
same,"Neuroprotection effect, cell viability (MTT)",SH-SY5Y cells [8],high variable neuroprotection results at concentrations higher than 10 µM
"O=C1CC(c2ccccc2)=Nc2cc(F)ccc2N1 [Compound 13, 7-Fluoro-4-phenyl-H-1,5-benzodiazepin-2(3H)-one]",IC50,[2],325 ± 55 µM
same,ABTS Assay TEAC50,[2],0.36
same,ABTS Assay TEAC100,[2],0.19
same,FRAP Assay Trolox Equivalents,[3],0.79
same,FRAP Assay Antioxidant Capacity (%) at 100 uM,[3],40.7%
same,FRAP Assay Antioxidant Capacity (%) at 200 uM,[3],61.6%
same,solubility,[4],< 20 µM
same,IC50,SH-SY5Y cells [5],> 250 µM
same,IC50,HepG2 cells,> 250 µM
same,Reaction with H2O2,[7],did not show any significant reaction
same,melting point,,205.7 °C
"COc1cc(C2=Nc3ccccc3NC(=O)C2)cc(OC)c1OC [Compound 20, 4-(3,4,5-Trimethoxyphenyl)-1H-1,5-benzodiazepin-2(3H)-one]",IC50,[2],269 ± 27.2 µM
same,ABTS Assay TEAC50,[2],0.34
same,ABTS Assay TEAC100,[2],0.18
same,FRAP Assay Trolox Equivalents,[3],0.90
same,FRAP Assay Antioxidant Capacity (%) at 100 uM,[3],48.1%
same,FRAP Assay Antioxidant Capacity (%) at 200 uM,[3],63.8%
same,solubility,[4],> 200 µM
same,IC50,SH-SY5Y cells [5],> 250 µM
same,IC50,HepG2 cells,> 250 µM
same,LDH leakage,SH-SY5Y cells [6],reduced LDH leakage to some degree
same,"Neuroprotection, cell viability (MTT), 6-OHD model",SH-SY5Y cells [9],significant neuroprotection
same,"Neuroprotection, cell viability (MTT), MPP+ model",SH-SY5Y cells [10],dose-dependent neuroprotection
same,Intracellular ROS level reduction,SH-SY5Y cells [11],lower ROS decrease
same,MMP recovery,SH-SY5Y cells [12],10–25%
same,"Neuroprotection effect, cell viability (MTT)",SH-SY5Y cells [8],significantly improved
"COc1cc(C2=Nc3cc(C)c(C)cc3NC(=O)C2)cc(OC)c1OC [Compound 21, 7,8-Dimethyl-4-(3,4,5-trimethoxyphenyl)-1H-1,5-benzodiazepin-2(3H)-one]",IC50,[2],137 ± 5.3 µM
same,ABTS Assay TEAC50,[2],0.36
same,ABTS Assay TEAC100,[2],0.21
same,FRAP Assay Trolox Equivalents,[3],0.89
same,FRAP Assay Antioxidant Capacity (%) at 100 uM,[3],47.2%
same,FRAP Assay Antioxidant Capacity (%) at 200 uM,[3],60.9%
same,solubility,[4],< 100 µM
same,IC50,SH-SY5Y cells [5],> 250 µM
same,IC50,HepG2 cells,> 250 µM
same,melting point,,208.5 °C
"COc1cc(C2=Nc3cc(F)c(F)cc3NC(=O)C2)cc(OC)c1OC [Compound 22, 7,8-Difluoro-4-(3,4,5-trimethoxyphenyl)-1H-1,5-benzodiazepin-2(3H)-one]",IC50,[2],> 500 µM
same,FRAP Assay Trolox Equivalents,[3],0.30
same,FRAP Assay Antioxidant Capacity (%) at 100 uM,[3],15.7%
same,FRAP Assay Antioxidant Capacity (%) at 200 uM,[3],13.7%
same,solubility,[4],< 100 µM
same,IC50,SH-SY5Y cells [5],> 250 µM
same,IC50,HepG2 cells,> 250 µM
same,melting point,,241.8 °C
"OO [Compound H2O2, hydrogen peroxide, reference compound]","H2O2 lethal dose (LD50 / EC50), resazurin method",SH-SY5Y cells [13],268 µM
same,H2O2 lethal dose (LD50 / EC50),SH-SY5Y cells [1],250 µM
"C[n+]1ccc(-c2ccccc2)cc1 [MPP^+, 1-Methyl-4-phenylpyridinium]",EC50,"SH-SY5Y cells [1]; MPP+ 48 h, read-out: concentration that resulted in 50% cell viability",700 µM

# From paper PMC8533176, “1,5-Benzodiazepin-2(3H)-ones: In Vitro Evaluation as Antiparkinsonian Agents” (Antioxidants, 2021)
